Measurements published in US20200345795A1, “MODULATION OF INTESTINAL MICROBIOTA IN PRE-DIABETES AND TYPE 2 DIABETES” (Medlab IP Pty Ltd, priority 2017, published 2020).

Test system: intestinal microbiota
Assay: Faecal microbial profile (16S rRNA gene sequencing, MALDI-TOF) in randomised placebo-controlled trial
Type: in vivo, human
Experimental: The study described herein was a pilot, single site, randomised, double blind, placebo-controlled trial. Ethical approval was granted by the Sydney Local Health District Human Research Ethics Committee, RPA Hospital, Sydney, Australia. The study was carried out according to the Declaration of Helsinki, the National Health and Medical Research Council National Statement on Ethical Conduct in Research Involving Humans and the Notes for Guidance on Good Clinical Practice as adopted by the Australian Therapeutic Goods Administration and the International Conference on Harmonisation Good Clinical Practise guidelines. Written informed consent was obtained from participants before enrolment.
The active product administered was a capsule containing 5×10^10 colony forming units (cfu) of a multi-strain probiotic combination of Lactobacillus plantarum, Lactobacillus bulgaricus, Lactobacillus gasseri, Bifidobacterum breve, Bifidobacterium animalis subsp. lactis, Bifidobacterium bifidum, Streptococcus thermophilus and Saccharomyces boulardii. The placebo was a capsule containing 50 mg maltodextrin. The probiotic and placebo capsules were opaque white in colour and looked and smelled identical. […]
Faecal bacterial profiles were determined using the Ion S5 next-generation sequencing platform (Thermo Fisher) and faecal yeasts were identified by matrix-assisted laser desorption ionization time-of-flight mass spectrometry (MALDI-TOF). […] After extraction, DNA was quantified in a Qubit 2.0 Fluorometer (Invitrogen, Thermo Fisher). […] PCR products were quantified and their quality was evaluated by electrophoretic fractionation in 2% agarose gels (E-Gel, EX Agarose Gel, Thermo Fisher). […]

Structure (SMILES): CN(C)C(=N)NC(=N)N [metformin, N,N-dimethylimidodicarbonimidic diamide]
- intestinal microbial community (beta diversity) at species and genera level (participants taking vs not taking metformin, p=0.002 (species) and 0.036 (genera)): differed from those not taking metformin
- effect on intestinal microbiota at the family level (participants taking vs not taking metformin, p=0.56): no effect
- relative abundance of Akkermansia municiphila (those taking metformin in the placebo group, in contrast to the probiotic group): lower relative abundance
